Assay [1] addresses T1, KRas G12D (Homo sapiens, UniProt P01116, G12D). Briefly: KRas G12D Binding Assay (TR-FRET displacement of labeled tracer). Also noted: corresponding to amino acids 1:169, produced at Array BioPharma; biotin (protein is biotinylated). Particulars: TR-FRET displacement of Cy5 labelled tracer, biotinylated GDP-loaded KRAS G12D (aa 1:169), 60 minute incubation at 22° C. An outline of the steps:
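Biotinylated GDP-loaded human KRAS G12D (aa 1–169) incubated with Cy5 tracer, Eu-streptavidin and compound (2% DMSO final) in 50 mM HEPES pH 7.5, 5 mM MgCl2, 0.005% Tween-20, 1 mM DTT, 60 min at 22 °C. TR-FRET ratio converted to percent of control; IC50 at 50 POC from 4-parameter logistic fit.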
On the technique in general: Time-resolved FRET reads energy transfer from a long-lived donor to a nearby acceptor.
Target sequence in this assay (P01116 1-169 isoform P01116-2 G12D): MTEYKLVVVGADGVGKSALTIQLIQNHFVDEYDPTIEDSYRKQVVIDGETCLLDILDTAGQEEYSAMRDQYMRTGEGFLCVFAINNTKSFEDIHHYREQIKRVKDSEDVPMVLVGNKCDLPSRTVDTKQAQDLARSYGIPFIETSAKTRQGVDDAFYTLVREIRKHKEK

For assay [2], the target named is T1, KRas G12D. In words: KRas G12D Surface Plasmon Resonance (SPR) Binding Assay. Particulars: Biacore T200, biotinylated Avidin-tagged KRAS protein on SA chip, 20 C, 1:1 binding model. An outline of the steps:
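Biotinylated Avi-tagged KRAS G12D was captured on a streptavidin chip; compounds were injected as 3-fold dilution series in HBS-Mg buffer, pH 7.5, with DMSO at 20 C (60 s contact, 120 s dissociation). Binding constants came from 1:1 model fits.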
Target sequence in this assay (P01116 1-188 isoform P01116-2 G12D): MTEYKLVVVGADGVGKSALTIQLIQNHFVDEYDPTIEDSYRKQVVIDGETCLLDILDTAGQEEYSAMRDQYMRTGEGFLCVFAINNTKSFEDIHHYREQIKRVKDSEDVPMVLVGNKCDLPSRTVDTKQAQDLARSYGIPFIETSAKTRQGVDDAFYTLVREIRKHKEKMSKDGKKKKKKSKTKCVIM

The subject of assay [3] is KRas G12D-mediated Phosphorylation of ERK. In words: Inhibition of KRas G12D-mediated Phosphorylation of ERK in AGS cells. Particulars: Homo sapiens; AGS cells expressing G12D, 3 hours, phospho-ERK normalized to GAPDH. The format is cell-based. An outline of the steps: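 AGS cells (endogenous KRas G12D) were treated with compounds for 3 h in 0.5% DMSO, then fixed, permeabilized and immunostained. The phospho-ERK (Thr202/Tyr204) signal was normalized to GAPDH in-cell by infrared detection and expressed as % of DMSO control. IC50 came from a 4-parameter fit.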

In the case of `O[C@@H]1C[C@@H]2CN(c3nc(OCC45CCCN4CC(F)C5)nc4c3CCN(c3cccc5cccc(Cl)c35)C4)C[C@H]1N2` (mixture of isomers) [Example 45, (1R,5R,6R)-3-(7-(8-chloronaphthalen-1-yl)-2-((2-fluorotetrahydro-1H-pyrrolizin-7a(5H)-yl)methoxy)-5,6,7,8-tetrahydropyrido[3,4-d]pyrimidin-4-yl)-3,8-diazabicyclo[3.2.1]octan-6-ol], the values for the IC50 in assay [1] and in assay [3] were 0.0026 µM and 1.36 µM, respectively. Binding in assay [2] was characterised by a dissociation constant (Kd) of 0.0019 µM.

Take `Oc1cc(N2CCc3c(nc(OC[C@@H]4CCCN4)nc3N3C[C@H]4CC[C@@H](C3)N4)C2)c2ccccc2c1Cl` [Example 27, 4-(4-((1R,5S)-3,8-diazabicyclo[3.2.1]octan-3-yl)-2-(((S)-pyrrolidin-2-yl)methoxy)-5,8-dihydropyrido[3,4-d]pyrimidin-7(6H)-yl)-1-chloronaphthalen-2-ol]: the IC50 in assay [1] amounted to 1.6 µM; in assay [3], 11.1 µM. In addition, the Kd in assay [2] came to 0.0913 µM.

As to `Cc1cccc2cccc(N3CCc4c(nc(OC[C@@H]5CCCN5C)nc4N4C[C@H]5CC[C@@H](C4)N5)C3)c12` [Example 52, 4-((1R,5S)-3,8-diazabicyclo[3.2.1]octan-3-yl)-7-(8-methylnaphthalen-1-yl)-2-(((S)-1-methylpyrrolidin-2-yl)methoxy)-5,6,7,8-tetrahydropyrido[3,4-d]pyrimidine], the IC50 worked out at 0.361 µM in assay [1] and 14.9 µM in assay [3]. Further, the Kd in assay [2] is 250 µM.

For `CN1CCC[C@H]1COc1nc2c(c(N3C[C@H]4CC[C@@H](C3)N4)n1)CCN(c1cc(C(F)F)cc3ccccc13)C2` [Example 56, 4-((1R,5S)-3,8-diazabicyclo[3.2.1]octan-3-yl)-7-(3-(difluoromethyl)naphthalen-1-yl)-2-(((S)-1-methylpyrrolidin-2-yl)methoxy)-5,6,7,8-tetrahydropyrido[3,4-d]pyrimidine], the IC50 was more than 10 µM in assay [1] and more than 16.7 µM in assay [3]. The compound also showed a Kd in assay [2] of 89.9 µM.

The term IC50 denotes the point on the concentration scale where inhibition reaches its midpoint. A high value points to a need for much substance. As a reminder, the Kd is the equilibrium constant for the complex coming apart. Read a low Kd as tighter binding.
